The results in this text go back to ChEMBL document CHEMBL2380308, “Voulkensin C-E, new 11-oxocassane-type diterpenoids and a steroid glycoside from Caesalpinia volkensii stem bark and their antiplasmodial activities” (Bioorg Med Chem Lett, 2013).

Where only a bound is given, the exact number is not on record here.

The test system of assay [1] is Plasmodium falciparum. Briefly: Antiplasmodial activity against Plasmodium falciparum D6. Format: functional, organism-based.
Assay [2] concerns Plasmodium falciparum. Briefly: Antiplasmodial activity against Plasmodium falciparum W2. Format: functional, organism-based.

Consider `CC[C@H](CC[C@@H](C)[C@H]1CC[C@H]2[C@@H]3CC=C4C[C@@H](O)CC[C@]4(C)[C@H]3CC[C@]12C)C(C)C` [BETA-SITOSTEROL], for which the IC50 in assay [1] and in assay [2] was above 50 µM in each case.
In the case of `CC(=O)O[C@@]1(C)CCC[C@]2(C)[C@H]3Cc4occc4[C@H](C)[C@@H]3CC[C@@]12O`, the IC50 – broadly, the midpoint of a concentration-inhibition curve – in assay [1] stood at 34.4 µM; in assay [2] it was 30.7 µM.
`CC(=O)O[C@@]1(C)CCC[C@@]2(C)[C@H]1CC[C@H]1[C@@H](C)c3ccoc3C[C@@H]12`: the IC50 in assay [1] is 25.7 µM; in assay [2] it was 30.3 µM.
The matching figures for `C[C@H]1c2ccoc2C[C@H]2[C@H]1CC[C@@]1(O)C(C)(C)CCC[C@]21C` [VOUCAPAN-5 ALPHA-OL]: above 50 µM and above 50 µM.
Take `C[C@H]1C(CCO)=CC(=O)[C@H]2[C@H]1CC[C@H]1C(C)(C)CCC[C@]21C`: the concentration for half-maximal inhibition (IC50) in assay [1] worked out at 18.7 µM; in assay [2] it was 15.6 µM.
The matching figures for `CC1(C)CC[C@]2(C(=O)O)CC[C@]3(C)C(=CC[C@@H]4[C@@]5(C)CC[C@H](O)C(C)(C)[C@@H]5CC[C@]43C)[C@@H]2C1` [OLEANOLIC_ACID]: 23.8 µM and 26.2 µM.
`C=C1C(CCOC(=O)/C=C/c2ccc(O)c(O)c2)=CC(=O)[C@H]2[C@H]1CC[C@H]1C(C)(C)CCC[C@]21C`: the 50% inhibitory concentration (IC50) in assay [1] amounted to 11.6 µM; in assay [2], 16.5 µM.
Turning to `CC[C@H](/C=C/[C@@H](C)[C@H]1CC[C@H]2[C@@H]3CC=C4C[C@@H](O[C@@H]5OC[C@@H](O)[C@H](O)[C@H]5O[C@@H]5O[C@H](CO)[C@@H](O)[C@H](O)[C@H]5O)CC[C@]4(C)[C@H]3CC[C@]12C)C(C)C`, the IC50 came out at 4.44 µM in assay [1] and 2.74 µM in assay [2].
Take `CC[C@H](/C=C/[C@@H](C)[C@H]1CC[C@H]2[C@@H]3CC=C4C[C@@H](O)CC[C@]4(C)[C@H]3CC[C@]12C)C(C)C` [STIGMASTEROL]: the IC50 in assay [1] and in assay [2] was above 50 µM each time.
As for `C=C1C(CCO)=CC(=O)[C@H]2[C@H]1CC[C@H]1C(C)(C)CCC[C@]21C`, the IC50 in assay [1] came to 17.3 µM; in assay [2], 22.8 µM.
As for `COC(=O)[C@]12CCC(C)(C)C[C@H]1C1=CC[C@@H]3[C@@]4(C)CC[C@H](OC(C)=O)C(C)(C)[C@@H]4CC[C@@]3(C)[C@]1(C)CC2`, the results for the IC50 in assay [1] and in assay [2] were 18.7 µM and 24.4 µM, respectively.
